This note sets out measurements from US20200039939A1, “QUINOLINE AMINES USEFUL AS CYTOPROTECTIVE AGENTS” (priority 2015, published 2020).

The test system of one test is CSM14.1 neuronal cells. In words: Cell survival assay (thapsigargin-treated CSM14.1 neuronal cells, CELLTITER-GLO). The conditions noted are these: 2 hrs compound pre-incubation, about 15 μM thapsigargin, overnight, luminescence. The test is classed as cell-based. As to the method: CSM14.1 neuronal cells were maintained in Complete Medium at 32° C.; wherein the Complete Medium contained Dulbecco's modified eagle medium (DMEM) with 10% fetal bovine serum (FSB), 1% L-glutamine, 100 IU/mL penicillin, and 100 μg/mL streptomycin. The cells were recovered from cultures by trypsinization and then seeded in 384 well plates (Greiner #781098) at a concentration of 1,000 cells/well in 20 μL of DMEM Assay Medium, wherein the DMEM Assay Medium contained 2% FBS, 100 IU/mL penicillin, and 100 μg/mL streptomycin. Seeding was performed using a MultiDrop Combi reagent broadcaster. The plates were incubated overnight at 32° C. A test compound was prepared by 2-fold serial dilution in 100% DMSO using a BIOMEK® 2000 liquid handler (Beckman Coulter). A dose-response curve containing 10 concentrations of the test compound was obtained. Using a BIOMEK® FX liquid handler (Beckman Coulter), 2.5 μL of the test compound was transferred from the 100% DMSO serial dilution plate to an intermediate plate containing 47.5 μL of DMEM Assay Medium containing 2% FBS, 100 IU/mL penicillin, and 100 μg/mL streptomycin and mixed. To reduce or eliminate the interference from the compound's precipitation, 6 μL of the diluted compound was immediately transferred to the assay plate to achieve a high compound concentration of 100 µM in 99% DMEM Assay Medium and 1% DMSO. After the assay plates were incubated for 2 hrs, 4 μL of 112.5 μM thapsigargin (TG) (DMSO stock diluted into Assay TC Medium) was dispensed into each testing well with a MultiDrop Combi reagent broadcaster for a final concentration of about 15 μM TG. The tissue culture media (4 μL) containing vehicle only was transferred manually to each control cell using a 16 channel electronic pipette. After the plates were incubated overnight (about 16 to 24 hrs), CELLTITER-GLO® (Promega) (16 μL) was added to all wells and luminescence was measured. High luminescence indicates cell survival. The biological results are summarized in Table 1 where A represents a cell viability EC50 less than 10 μM and B represents a value greater than 10 μM and less than 20 μM.
In general terms: ATP-based viability assays read luminescence as a measure of living cells.

For another test, the target named is T1, SERCA (Homo sapiens, UniProt P16615).
T1 construct: microsomal preparations from HEK 293 cells; endogenous in cells; host or cells: HEK 293 cells (microsomal preparation)
The test can be described thus: Ca-ATPase assay (NADH-linked, enzyme-coupled ATPase assay). The class given is biochemical. The following applies: microsomal preparations from HEK 293 cells, Vmax from Hill fit of ATPase calcium-dependence, relative to controls. As to the method: A Ca-ATPase assay was performed using microsomal preparations from HEK 293 cells at a series of calcium concentrations corresponding to the physiological range, relative to controls. The ATP hydrolysis rate was measured over a range of calcium concentrations in the presence of test compounds using an NADH-linked, enzyme-coupled ATPase assay adapted for 96-well microplates, with Vmax determined by fitting the ATPase calcium-dependence to the Hill function. Each well contained 2 μg or 7 μg of SR vesicles (optimized for skeletal or cardiac SR, respectively), 50 mM MOPS (pH 7.0), 100 mM KCl, 5 mM MgCl2, 1 mM EGTA, 0.2 mM NADH, 1 mM phosphoenol pyruvate, 5 IU pyruvate kinase, 5 IU lactate dehydrogenase, and 3.5 μg/mL A23187 (a calcium ionophore). CaCl2 was added to set free [Ca^2+] to the specific values. The assay was started upon addition of ATP at a final concentration of 5 mM, and read in a SpectraMax Plus microplate spectrophotometer. The results are summarized in Table 4, where A represents an increase in SERCA Vmax greater than or equal to 50% and B represents a value greater than 10% and less than 50%.

The subject of test [1] is Human embryonic kidney (HEK293) cells / mouse neuroblastoma (N2a) cells. In words: Cell rescue assay: protection against thapsigargin (TG)-induced cell-death (ALAMARBLUE). The class given is cell-based. The following applies: compound 20 μM, 2 hrs before thapsigargin (15 μM HEK293, 1 μM N2a), 24 hrs, viability as % RFU of control, read-out: Cell Survival %. As to the method: Protection against Thapsigargin (TG)-induced Cell-death. Human embryonic kidney (HEK293) cells were grown in Dulbecco's Modified Eagle's Medium (DMEM) with 10% FBS and 1% antibiotic antimycotic solution (ABAM). Mouse neuroblastoma (N2a) cells were grown in 1:1 DMEM:OPTI-MEM® with 5% FBS and 1% ABAM. All cells were grown in 10% CO2 in a humidified environment of the incubator. Cells grown in 96-well plates were exposed to a test compound (20 μM) for 2 hrs before addition of thapsigargin (15 μM for HEK293 cells and 1 μM for N2a cells) to induce ER stress. After incubation in cell-culture incubator for 24 hrs, ALAMARBLUE® regent (10% v/v) was added to the wells. Fluorescence reading was taken 2 hrs after the addition of the ALAMARBLUE® regent. Cell-viability was calculated as a percentage of relative fluorescence unit (RFU) compared to control. […] The biological results are summarized in Table 2, where each compound was tested at 20 μM and where A represents a viability greater than 50%, B represents a viability greater than 10% and less than 50%, C represents a value below 10%.

The test system of another test is Human SH-SY5Y cells. In words: Cell rescue assay: protection against amyloid (AB1-42)-induced cell toxicity. The test is classed as cell-based. The following applies: 96 h, 7.5 uM compound (final), AB1-42 at 10 uM, 4 days, OD 490 nm, read-out: Cell Survival % (cell rescue). As to the method: Protection against 1-amyloid-induced cell toxicity. Chonpathompikunlert et al. Eu. J. Pharmacol. 2011, 650, 544-549. Human SH-SY5Y cells are suspended in media containing 2% FBS and 2× Gentamicin. Transfer 100 ul/well culture to 96-well plate (20,000 cells/well; passage #5) and incubate overnight. Prepare compound samples at 30 uM. Add 50 ul of the samples to the cells [[…]] and incubate 3 hours. Make stock of 40 uM AB1-42 peptide in assay media. Transfer 50 ul/well to cells/compounds in assay plate. The final assay volume is 200 ul/well, containing 2% FBS, 2× Gentamicin, 7.5 uM compound and AB1-42 at 10 uM. Incubate for 4 days then add 20 ul of Promega Substrate Cell Titer 96 Aqueous One Solution Reagent to each well. Incubate 37° C. and read OD at 490 nm. The results are summarized in Table 3, where A represents a value greater than 40% cell rescue, B represents a value greater than 10% and less than or equal to 40% cell rescue, and C represents a value greater than 1% and less than or equal to 10% cell rescue.

The test system of another test is Ob/ob mice. In words: Effect of a SERCA agonist on the level of blood glucose. The test is classed as in vivo. The conditions noted are these: Mus musculus, ip, 96 h, 50 mg/kg i.p. once a day for 5 days, fasting glucose at baseline and 4 days after administration, read-out: Glucose level reduction. The procedure:
Ob/ob mice (10 weeks old, n=7) were intraperitoneally (i.p.) injected with 100 μL of a solution containing 0 (vehicle) or 50 mg/kg of a test compound once a day for a total of 5 days. Fasting glucose was measured at baseline and 4 days after the administration of the test compound. Glucose levels were measured in blood samples drawn from the tail vein using a handheld glucose sensor. Compound effects on blood glucose are shown in Table 5 where A represents a 10-20% reduction in blood glucose, B represents a 21-30% reduction in blood glucose, and C represents a greater than 30% reduction in blood glucose levels.

T1 sequence (P16615 whole entry): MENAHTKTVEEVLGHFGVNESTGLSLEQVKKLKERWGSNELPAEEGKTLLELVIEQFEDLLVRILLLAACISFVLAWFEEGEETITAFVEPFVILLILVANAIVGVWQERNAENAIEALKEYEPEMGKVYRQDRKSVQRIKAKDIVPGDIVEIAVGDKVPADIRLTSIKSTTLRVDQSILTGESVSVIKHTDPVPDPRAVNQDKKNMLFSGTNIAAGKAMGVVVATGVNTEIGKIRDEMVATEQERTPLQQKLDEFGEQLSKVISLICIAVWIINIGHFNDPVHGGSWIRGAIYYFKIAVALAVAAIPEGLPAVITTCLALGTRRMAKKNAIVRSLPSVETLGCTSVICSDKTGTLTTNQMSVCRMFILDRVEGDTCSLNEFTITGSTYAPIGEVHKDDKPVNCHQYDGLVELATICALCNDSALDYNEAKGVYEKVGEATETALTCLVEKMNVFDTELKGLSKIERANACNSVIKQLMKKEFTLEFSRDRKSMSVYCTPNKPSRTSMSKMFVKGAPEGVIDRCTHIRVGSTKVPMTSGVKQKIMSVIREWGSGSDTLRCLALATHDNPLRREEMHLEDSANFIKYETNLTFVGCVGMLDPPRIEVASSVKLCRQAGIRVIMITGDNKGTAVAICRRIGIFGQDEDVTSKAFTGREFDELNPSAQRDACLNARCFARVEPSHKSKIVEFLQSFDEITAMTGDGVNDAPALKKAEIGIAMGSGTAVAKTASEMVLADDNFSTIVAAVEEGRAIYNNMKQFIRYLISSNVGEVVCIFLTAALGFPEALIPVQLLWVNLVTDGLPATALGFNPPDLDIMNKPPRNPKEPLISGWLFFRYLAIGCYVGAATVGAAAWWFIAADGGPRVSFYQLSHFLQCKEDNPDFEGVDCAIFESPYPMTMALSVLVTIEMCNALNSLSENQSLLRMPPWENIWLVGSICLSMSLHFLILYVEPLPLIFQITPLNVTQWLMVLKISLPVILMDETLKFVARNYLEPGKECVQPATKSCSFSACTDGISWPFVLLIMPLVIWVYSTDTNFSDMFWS

As usually defined, the EC50 is the midpoint of the concentration-response curve. Higher therefore signals weaker potency. `Cc1ccc2cccc(NCc3ccc(OC(C)C)cc3)c2n1` [C1, N-(4-Isopropoxybenzyl)-2-methylquinolin-8-amine] gave an EC50 in the test on CSM14.1 neuronal cells of less than 10 µM. Further, at SERCA, the “SERCA Vmax Increase” value was “B (B represents a value greater than 10% and less than 50%)”. For the same compound, in test [1], the viability at 20 µM is more than 50%. For the same compound, the viability at 7.5 µM in the test with Human SH-SY5Y cells was more than 40%. Also, the inhibition in vivo at 50 mg/kg with Ob/ob mice is more than 30%.

In the test with CSM14.1 neuronal cells, `Cc1ccc2cccc(NCc3cc(Br)cs3)c2n1` [C2, N-((4-Bromothiophen-2-yl)methyl)-2-methylquinolin-8-amine] registered an EC50 of less than 10 µM. The “SERCA Vmax Increase” value at SERCA is “B (B represents a value greater than 10% and less than 50%)”. In test [1], the viability at 20 µM lay within 10 to 50%. Moreover, the viability at 7.5 µM in the test with Human SH-SY5Y cells was 10 to 40%. In the test on Ob/ob mice, the inhibition in vivo at 50 mg/kg lay within 21 to 30%.

Consider `Cc1ccc2cccc(NCc3ccc(Br)s3)c2n1` [C3, N-((5-Bromothiophen-2-yl)methyl)-2-methylquinolin-8-amine], for which, in the test on CSM14.1 neuronal cells, the EC50 was less than 10 µM. For the same compound, the “SERCA Vmax Increase” value at SERCA was “B (B represents a value greater than 10% and less than 50%)”. Further, the viability at 20 µM in test [1] was more than 50%. Also, the viability at 7.5 µM in the test on Human SH-SY5Y cells is more than 40%. In addition, the inhibition in vivo at 50 mg/kg in the test with Ob/ob mice fell in the range of 21 to 30%.

The compound `Cc1ccc2cccc(NCc3ccc(Cl)cc3)c2n1` [C4, N-(4-Chlorobenzyl)-2-methylquinolin-8-amine] displayed an EC50 in the test with CSM14.1 neuronal cells of less than 10 µM. Moreover, at SERCA, the “SERCA Vmax Increase” value is “A (A represents an increase in SERCA Vmax greater than or equal to 50%)”. In addition, the viability at 20 µM in test [1] was more than 50%. For the same compound, the viability at 7.5 µM with Human SH-SY5Y cells was more than 40%. Besides, in the test with Ob/ob mice, the inhibition in vivo at 50 mg/kg fell in the range of 10 to 20%.

As to `COc1c(C)cccc1CNc1cccc2ccc(C)nc12` [C5, N-(2-Methoxy-3-methyl)-2-methylquinolin-8-amine], the EC50 with CSM14.1 neuronal cells was 10 to 20 µM. In addition, the “SERCA Vmax Increase” value on SERCA is “A (A represents an increase in SERCA Vmax greater than or equal to 50%)”. In test [1], the viability at 20 µM lay within 10 to 50%. Moreover, the viability at 7.5 µM in the test on Human SH-SY5Y cells was in the range of 1 to 10%. The inhibition in vivo at 50 mg/kg with Ob/ob mice was in the range of 21 to 30%.

As for `Cc1ccc2cccc(NCc3ccc(C(F)(F)F)cc3)c2n1` [C6, N-(4-Trifluoromethylbenzyl)-2-methylquinolin-8-amine], the EC50 with CSM14.1 neuronal cells is less than 10 µM. The “SERCA Vmax Increase” value at SERCA is “B (B represents a value greater than 10% and less than 50%)”. In addition, the viability at 20 µM in test [1] is more than 50%. Further, in the test with Human SH-SY5Y cells, the viability at 7.5 µM is more than 40%. The inhibition in vivo at 50 mg/kg with Ob/ob mice is 10 to 20%.

The compound `Cc1ccc2cccc(NCc3ccc(C#N)cc3)c2n1` [C7, N-(4-Cyanobenzyl)-2-methylquinolin-8-amine] had an EC50 in the test on CSM14.1 neuronal cells of 10 to 20 µM. Also, the “SERCA Vmax Increase” value on SERCA was “B (B represents a value greater than 10% and less than 50%)”. Besides, the viability at 20 µM in test [1] was less than 10%. The viability at 7.5 µM in the test with Human SH-SY5Y cells lay within 10 to 40%. Further, the inhibition in vivo at 50 mg/kg in the test with Ob/ob mice lay within 10 to 20%.

`Cc1ccc2cccc(NCc3ccc(C)s3)c2n1` [C8, N-((5-Methylthiophen-2-yl)methyl)-2-methylquinolin-8-amine] registered an EC50 in the test on CSM14.1 neuronal cells of less than 10 µM. At SERCA, the “SERCA Vmax Increase” value is “B (B represents a value greater than 10% and less than 50%)”. Further, the viability at 20 µM in test [1] lay in the range of 10 to 50%. In addition, the viability at 7.5 µM in the test on Human SH-SY5Y cells is more than 40%. Also, the inhibition in vivo at 50 mg/kg with Ob/ob mice is more than 30%.

`Cc1ccc2cccc(NCc3ccc(C)o3)c2n1` [C9, N-((5-Methylfuran-2-yl)methyl)-2-methylquinolin-8-amine]: in the test with CSM14.1 neuronal cells, the EC50 is 10 to 20 µM. In addition, the “SERCA Vmax Increase” value at SERCA was “B (B represents a value greater than 10% and less than 50%)”. Also, in test [1], the viability at 20 µM was less than 10%. Further, the viability at 7.5 µM in the test on Human SH-SY5Y cells is 1 to 10%. In addition, in the test with Ob/ob mice, the inhibition in vivo at 50 mg/kg was in the range of 21 to 30%.

Take `Cc1ccc2cccc(NCc3cc4ccccc4s3)c2n1` [C10, N-(Benzo[b]thiophen-2-ylmethyl)-2-methylquinolin-8-amine]: in the test on CSM14.1 neuronal cells, the EC50 lay in the range of 10 to 20 µM. Further, the “SERCA Vmax Increase” value at SERCA is “B (B represents a value greater than 10% and less than 50%)”. Further, in test [1], the viability at 20 µM lay within 10 to 50%. In addition, in the test with Human SH-SY5Y cells, the viability at 7.5 µM was in the range of 10 to 40%. Moreover, in the test with Ob/ob mice, the inhibition in vivo at 50 mg/kg fell in the range of 21 to 30%.
